We go through 18 molecules from patent US20230064983A1 (priority 2020, published 2023).

Each structure is given as a SMILES string. Values joined by “and” are separate entries in the source; they are usually repeats but may differ in a detail not shown here. Equal values may be shown once.

For assay [1], the target named is T1, EGFR with insertion SVD between D770 and N771 (mutEGFR D770_N771insSVD) (Homo sapiens, UniProt P00533, DUP768-770).
T1 construct: amino acids R669 to A1210; made in house; host or cells: Sf9 insect cells (baculovirus)
Briefly: Exon20-Mutant-EGFR(D770_N771insSVD) kinase assay (TR-FRET). The assay is classed as biochemical. The settings on record: 2 mM ATP, Table 2. (Time-resolved FRET reads energy transfer from a long-lived donor to a nearby acceptor.)

The target of a further assay is T2, Bub1 (Homo sapiens, UniProt O43683).
T2 construct: catalytic domain of human Bub1 (amino acids 704-1085); His6 (N); made in house; host or cells: insect cells (Hi5)
Briefly: Bub1 high ATP kinase assay (TR-FRET). To be noted: Bub1 high ATP (2 mM) IC50, TR-FRET, 2 mM ATP; Table 3. The assay is classed as biochemical. An excerpt:
Bub1 high ATP Kinase Assay
Bub1-inhibitory activity of compounds of the present invention at a high ATP concentration was quantified employing the Bub1 TR-FRET high ATP kinase assay as described in the following paragraphs.
N-terminally His6-tagged recombinant catalytic domain of human Bub1 (amino acids 704-1085), expressed in insect cells (Hi5) and purified by Ni-NTA affinity chromatography and subsequent size exclusion chromatography, was used as enzyme. As substrate for the kinase reaction the biotinylated peptide biotin-Ahx-[…] (C-terminus in amid form) was used which can be purchased e.g. form the company Biosyntan (Berlin, Germany).
Then the kinase reaction was started by the addition of 2 μl of a solution of Bub1 in assay buffer and the resulting mixture was incubated for a reaction time of 60 min at 22° C. The concentration of Bub1 was adjusted depending of the activity of the enzyme lot and was chosen appropriate to have the assay in the linear range, a typical concentration is about 200 ng/ml. The reaction was stopped by the addition of 3 μl of a solution of TR-FRET detection reagents (0.167 μM streptavidine-XL665 [Cisbio Bioassays, Codolet, France] and 1.67 nM anti-phosho-Serine antibody [Merck Millipore, cat. #35-002] and 0.67 nM LANCE EU-W1024 labeled anti-mouse IgG antibody [Perkin-Elmer, product no. AD0077, as an alternative a Terbium-cryptate-labeled anti-mouse IgG antibody from Cisbio Bioassays can be used]) in an aqueous EDTA-solution (83.3 mM EDTA, 0.2% (w/v) bovine serum albumin in 100 mM HEPES pH 7.5).
The resulting mixture was incubated 1 h at 22° C. to allow the formation of complex between the phosphorylated biotinylated peptide and the detection reagents. Subsequently the amount of phosphorylated substrate was evaluated by measurement of the resonance energy transfer from the Eu-chelate to the streptavidine-XL. Therefore, the fluorescence emissions at 620 nm and 665 nm after excitation at 350 nm was measured in a TR-FRET reader, e.g. a Pherastar or Pherastar FS (both from BMG Labtechnologies, Offenburg, Germany) or a Viewlux (Perkin-Elmer). The ratio of the emissions at 665 nm and at 622 nm was taken as the measure for the amount of phosphorylated substrate.

The target of another assay is Ba/F3-EGFR-WT cells (Homo sapiens, UniProt P00533). Briefly: Ba/F3 cell survival assay, wild type EGFR. The settings on record: Cell Titer-Glo, 48 h, with 10 ng/mL EGF; Table 4; read-out: BA/F3 (wild type) IC50. The assay is classed as cell-based.
The target of assay [2] is Ba/F3-EGFR-D770_N771insSVD cells (Homo sapiens, UniProt P00533, DUP768-770, cells depend on it). Briefly: Ba/F3 cell survival assay, EGFR D770_N771insSVD. The assay is classed as cell-based. The settings on record: Cell Titer-Glo, 48 h, without IL-3; Table 4; read-out: BA/F3 (insSVD) IC50.
Chain of Ba/F3-EGFR-D770_N771insSVD cells (P00533 with tags, fused parts or gaps DUP768-770): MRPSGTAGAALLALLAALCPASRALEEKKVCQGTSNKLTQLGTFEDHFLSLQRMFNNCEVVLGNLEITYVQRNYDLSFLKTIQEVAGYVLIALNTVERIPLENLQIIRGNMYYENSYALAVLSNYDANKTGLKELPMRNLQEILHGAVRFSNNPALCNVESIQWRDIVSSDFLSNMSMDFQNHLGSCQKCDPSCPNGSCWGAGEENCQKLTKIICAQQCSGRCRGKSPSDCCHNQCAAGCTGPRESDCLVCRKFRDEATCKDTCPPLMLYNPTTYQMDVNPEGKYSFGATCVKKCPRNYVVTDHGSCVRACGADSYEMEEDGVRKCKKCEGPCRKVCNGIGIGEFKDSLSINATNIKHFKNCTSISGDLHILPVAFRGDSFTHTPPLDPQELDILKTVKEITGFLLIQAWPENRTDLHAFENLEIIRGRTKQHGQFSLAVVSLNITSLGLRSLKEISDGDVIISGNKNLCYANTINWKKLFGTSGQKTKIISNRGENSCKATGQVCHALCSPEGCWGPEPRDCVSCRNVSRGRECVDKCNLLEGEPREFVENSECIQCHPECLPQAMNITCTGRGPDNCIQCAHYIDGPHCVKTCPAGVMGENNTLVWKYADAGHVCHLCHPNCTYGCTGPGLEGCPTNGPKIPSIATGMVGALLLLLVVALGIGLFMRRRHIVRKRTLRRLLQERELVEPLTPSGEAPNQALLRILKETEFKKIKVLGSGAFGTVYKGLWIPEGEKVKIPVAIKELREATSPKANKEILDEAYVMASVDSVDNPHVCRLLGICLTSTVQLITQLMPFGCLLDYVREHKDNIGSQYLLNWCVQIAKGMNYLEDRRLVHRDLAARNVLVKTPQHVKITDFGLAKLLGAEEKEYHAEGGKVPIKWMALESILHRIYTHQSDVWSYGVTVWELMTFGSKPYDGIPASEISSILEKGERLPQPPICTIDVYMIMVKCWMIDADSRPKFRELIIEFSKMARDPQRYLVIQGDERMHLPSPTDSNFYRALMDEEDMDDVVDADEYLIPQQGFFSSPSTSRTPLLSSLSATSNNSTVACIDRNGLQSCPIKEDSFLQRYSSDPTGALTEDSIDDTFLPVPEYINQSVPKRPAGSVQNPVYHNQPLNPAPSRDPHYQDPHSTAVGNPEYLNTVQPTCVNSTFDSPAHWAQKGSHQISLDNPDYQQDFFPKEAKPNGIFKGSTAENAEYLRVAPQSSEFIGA

T2 sequence (O43683 704-1085): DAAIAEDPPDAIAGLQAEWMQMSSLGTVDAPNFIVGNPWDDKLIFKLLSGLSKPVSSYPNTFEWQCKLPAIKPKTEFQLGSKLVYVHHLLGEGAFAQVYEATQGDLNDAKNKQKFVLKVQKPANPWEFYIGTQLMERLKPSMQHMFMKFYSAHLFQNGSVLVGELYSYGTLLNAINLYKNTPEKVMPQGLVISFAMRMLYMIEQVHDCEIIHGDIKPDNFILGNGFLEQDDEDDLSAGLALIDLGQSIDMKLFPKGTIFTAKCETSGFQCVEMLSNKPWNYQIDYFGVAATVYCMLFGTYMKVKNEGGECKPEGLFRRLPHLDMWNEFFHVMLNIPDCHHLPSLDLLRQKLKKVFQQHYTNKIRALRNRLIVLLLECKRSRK
Chain of Ba/F3-EGFR-WT cells (P00533 whole entry, looked up, stated change not applied): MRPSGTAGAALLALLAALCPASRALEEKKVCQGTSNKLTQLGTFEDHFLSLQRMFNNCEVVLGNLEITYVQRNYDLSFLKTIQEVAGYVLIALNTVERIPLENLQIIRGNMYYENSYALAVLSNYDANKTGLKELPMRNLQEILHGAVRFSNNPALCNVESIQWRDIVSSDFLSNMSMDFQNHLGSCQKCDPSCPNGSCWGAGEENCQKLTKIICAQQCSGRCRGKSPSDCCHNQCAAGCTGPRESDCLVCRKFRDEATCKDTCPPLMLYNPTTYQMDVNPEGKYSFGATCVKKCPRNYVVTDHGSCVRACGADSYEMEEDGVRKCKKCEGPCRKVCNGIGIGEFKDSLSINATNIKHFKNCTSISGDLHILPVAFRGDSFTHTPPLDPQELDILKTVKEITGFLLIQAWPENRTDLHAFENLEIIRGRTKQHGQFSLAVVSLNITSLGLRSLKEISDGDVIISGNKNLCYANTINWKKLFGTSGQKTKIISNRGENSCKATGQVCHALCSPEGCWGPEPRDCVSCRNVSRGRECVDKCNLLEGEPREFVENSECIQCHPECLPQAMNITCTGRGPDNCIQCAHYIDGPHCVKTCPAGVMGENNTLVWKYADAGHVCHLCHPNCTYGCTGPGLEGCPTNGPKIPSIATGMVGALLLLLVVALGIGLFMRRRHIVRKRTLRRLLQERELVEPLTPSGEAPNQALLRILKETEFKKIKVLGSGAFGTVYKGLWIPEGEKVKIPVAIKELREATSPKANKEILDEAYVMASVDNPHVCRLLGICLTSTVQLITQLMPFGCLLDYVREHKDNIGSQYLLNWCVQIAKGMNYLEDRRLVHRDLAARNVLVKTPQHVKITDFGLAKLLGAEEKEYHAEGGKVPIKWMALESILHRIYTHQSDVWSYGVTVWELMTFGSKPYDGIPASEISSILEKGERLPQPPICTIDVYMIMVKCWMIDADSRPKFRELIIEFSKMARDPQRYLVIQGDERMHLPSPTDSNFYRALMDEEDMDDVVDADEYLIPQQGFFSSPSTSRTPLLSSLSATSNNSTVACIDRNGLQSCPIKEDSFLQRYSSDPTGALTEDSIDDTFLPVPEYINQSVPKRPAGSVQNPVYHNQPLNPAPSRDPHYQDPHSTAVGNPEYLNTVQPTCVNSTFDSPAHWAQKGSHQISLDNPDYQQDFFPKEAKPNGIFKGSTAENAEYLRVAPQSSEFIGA
T1 sequence (P00533 other isoform, or with tags, fused parts or gaps DUP768-770): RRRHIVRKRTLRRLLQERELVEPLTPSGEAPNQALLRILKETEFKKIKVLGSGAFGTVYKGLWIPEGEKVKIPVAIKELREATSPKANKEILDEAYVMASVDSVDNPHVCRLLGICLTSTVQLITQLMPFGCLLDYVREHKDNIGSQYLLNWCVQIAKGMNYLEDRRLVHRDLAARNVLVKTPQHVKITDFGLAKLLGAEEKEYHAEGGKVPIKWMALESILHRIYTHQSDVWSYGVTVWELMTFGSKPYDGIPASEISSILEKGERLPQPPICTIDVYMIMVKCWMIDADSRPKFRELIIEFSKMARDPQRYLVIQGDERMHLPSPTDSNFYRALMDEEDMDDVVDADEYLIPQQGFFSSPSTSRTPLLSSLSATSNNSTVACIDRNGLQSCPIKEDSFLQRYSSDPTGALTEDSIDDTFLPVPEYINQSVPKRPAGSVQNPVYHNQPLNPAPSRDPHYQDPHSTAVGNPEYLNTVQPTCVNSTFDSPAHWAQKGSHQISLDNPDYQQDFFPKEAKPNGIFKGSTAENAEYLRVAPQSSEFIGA

As usually defined, the IC50 is the concentration at which inhibition is half-maximal. `COc1c(Cl)cccc1Nc1c(-c2ccncc2OC[C@@H]2CCCO2)[nH]c2c1C(=O)NCC2CC=C(F)F` (single isomer, unassigned) [Example 100]: the “mutEGFR (D770_N771insSVD) kinase assay IC50” value (shortened to “mutEGFR”) in assay [1] came out at 0.35 nM. On Bub1, this molecule showed an IC50 of 3640 nM. Besides, the GI50 at Ba/F3-EGFR-WT cells worked out at 990 nM; in assay [2], 58.9 nM.
On the same counts, the results for `CCc1c(Cl)cccc1Nc1c(-c2ccncc2OC[C@@H]2COCCO2)[nH]c2c1C(=O)N[C@H](C)C2` [Example 110, (6R)-3-(3-chloro-2-ethylanilino)-2-(3-{[(2S)-1,4-dioxan-2-yl]methoxy}pyridin-4-yl)-6-methyl-1,5,6,7-tetrahydro-4H-pyrrolo[3,2-c]pyridin-4-one] are 0.333 nM, 1210 nM, 780 nM and 40.3 nM.
As for `C[C@@H]1Cc2[nH]c(-c3ccncc3OC[C@@H]3CCCO3)c(Nc3cccc(F)c3CC(F)F)c2C(=O)N1` [Example 63, (6R)-3-[2-(2,2-difluoroethyl)-3-fluoroanilino]-6-methyl-2-(3-{[(2S)-oxolan-2-yl]methoxy}pyridin-4-yl)-1,5,6,7-tetrahydro-4H-pyrrolo[3,2-c]pyridin-4-one], the “mutEGFR” value in assay [1] came out at 0.211 nM. The molecule further came in with an IC50 against Bub1 of 14100 nM. The values for the GI50 (on Ba/F3-EGFR-WT cells; in assay [2]) were 1170 nM and 117 nM, respectively.
On the same counts, the results for `COc1c(Cl)cccc1Nc1c(-c2ccncc2OC[C@@H]2COCCN2C)[nH]c2c1C(=O)NCC2CCF` (single isomer, unassigned) [Example 89] are 0.278 nM, 15600 nM, 425 nM and 18.2 nM.
In the case of `COCC(C)Oc1cnccc1-c1[nH]c2c(c1Nc1cccc(Cl)c1OC)C(=O)N[C@@H]1CCC[C@H]21` (single isomer, unassigned) [Example 50], the “mutEGFR” value in assay [1] was found to be 0.393 nM. This molecule displayed a half-inhibitory concentration (IC50) against Bub1 of more than 20000 nM. Besides, the GI50 on Ba/F3-EGFR-WT cells is 1650 nM; in assay [2], 349 nM.
In the case of `COc1c(Cl)cccc1Nc1c(-c2ccncc2OCC2COCCO2)[nH]c2c1C(=O)N[C@@H]1CCC[C@H]21` (mixture of isomers) [Example 52, (5aR,8aS)-3-(3-chloro-2-methoxyanilino)-2-{3-[(1,4-dioxan-2-yl)methoxy]-4-pyridyl}-5,5a,6,7,8,8a-hexahydrocyclopenta[b]pyrrolo[2,3-d]pyridin-4(1)-one], the “mutEGFR” value in assay [1] was 0.142 nM. The molecule also returned an IC50 against Bub1 of 10000 nM. Further, the results for the GI50 (at Ba/F3-EGFR-WT cells; in assay [2]) were 407 nM and 38.9 nM, respectively.
Regarding `COc1c(Cl)cccc1Nc1c(-c2ccncc2OCCC(C)OC)[nH]c2c1C(=O)N[C@H](C)C2` (mixture of isomers) [Example 120, (6R)-3-(3-chloro-2-methoxy-anilino)-2-[3-(3-methoxybutoxy)-4-pyridyl]-6-methyl-1,5,6,7-tetrahydropyrrolo[3,2-c]pyridin-4-one], the “mutEGFR” value in assay [1] was found to be 0.0901 nM. Further, on Bub1, inhibition was half-maximal at 1480 nM (IC50). The GI50 at Ba/F3-EGFR-WT cells amounted to 358 nM; in assay [2] it was 31.1 nM.
As to `C[C@@H]1Cc2[nH]c(-c3ccncc3OCC3COCCO3)c(Nc3cccc(F)c3CC(F)F)c2C(=O)N1` (stereo partly drawn) [Example 108, (6R)-3-[2-(2,2-difluoroethyl)-3-fluoro-anilino]-2-[3-(1,4-dioxan-2-ylmethoxy)-4-pyridyl]-6-methyl-1,5,6,7-tetrahydropyrrolo[3,2-c]pyridin-4-one], in assay [1], the “mutEGFR” value was 0.213 nM. The molecule further gave a concentration for half-maximal inhibition (IC50) against Bub1 of 6220 nM. Also, the GI50 on Ba/F3-EGFR-WT cells is 1400 nM; in assay [2], 141 nM.
With `COc1c(Cl)cccc1Nc1c(-c2ccncc2OCC2OCCC2(F)F)[nH]c2c1C(=O)N[C@H](C)C2` (single isomer, unassigned) [Example 73], in assay [1], the “mutEGFR” value worked out at 0.179 nM. Half-maximal inhibition against Bub1 (IC50) required 4060 nM. For the same molecule, the values for the GI50 (at Ba/F3-EGFR-WT cells; in assay [2]) were 643 nM and 55.3 nM, respectively.
The matching figures for `COc1c(Cl)cccc1Nc1c(-c2ccncc2OCC[C@@H]2CCCO2)[nH]c2c1C(=O)N[C@H](C)C2` [Example 92, (6R)-3-(3-chloro-2-methoxyanilino)-6-methyl-2-(3-{2-[(2S)-oxolan-2-yl]ethoxy}pyridin-4-yl)-1,5,6,7-tetrahydro-4H-pyrrolo[3,2-c]pyridin-4-one]: 0.243 nM, 1980 nM, 519 nM and 20.2 nM.
In the case of `COc1c(Cl)cccc1Nc1c(-c2ccncc2OCC(C)(C)OC)[nH]c2c1C(=O)N[C@H](C)C2` [Example 1, (6R)-3-(3-chloro-2-methoxyanilino)-2-[3-(2-methoxy-2-methylpropoxy)pyridin-4-yl]-6-methyl-1,5,6,7-tetrahydro-4H-pyrrolo[3,2-c]pyridin-4-one], in assay [1], the “mutEGFR” value is 0.135 nM. For the same molecule, on Bub1, the IC50 was determined as 1320 nM. Besides, the results for the GI50 (at Ba/F3-EGFR-WT cells; in assay [2]) were 417 nM and 17.8 nM, respectively.
For `COc1c(F)cccc1Nc1c(-c2ccncc2OC[C@@H]2CCCO2)[nH]c2c1C(=O)NC(C)C2` (single isomer, unassigned) [Example 9], in assay [1], the “mutEGFR” value was 0.101 nM. This molecule yielded a half-inhibitory concentration (IC50) against Bub1 of 8240 nM. The GI50 turned out to be 644 nM on Ba/F3-EGFR-WT cells and 104 nM in assay [2].
With `COc1c(Cl)cccc1Nc1c(-c2ccncc2OC[C@@H]2CCCO2)[nH]c2c1C(=O)NC(C(F)(F)F)C2` (single isomer, unassigned) [Example 39], in assay [1], the “mutEGFR” value was 18.8 nM. The IC50 against Bub1 is more than 20000 nM. The GI50 on Ba/F3-EGFR-WT cells was 4120 nM; in assay [2], 786 nM and > 1000 nM.
On to `Cc1c(Cl)cccc1Nc1c(-c2ccncc2OCC2COCCO2)[nH]c2c1C(=O)NCC2C` (single isomer, unassigned) [Example 70, 3-(3-chloro-2-methyl-anilino)-2-[3-(1,4-dioxan-2-ylmethoxy)-4-pyridyl]-7-methyl-1,5,6,7-tetrahydropyrrolo[3,2-c]pyridin-4-one], for which the “mutEGFR” value in assay [1] came out at 0.255 nM. Further, 1550 nM corresponded to half-maximal inhibition against Bub1 (IC50). In addition, the GI50 on Ba/F3-EGFR-WT cells amounted to 4630 nM; in assay [2], 224 nM.
For the molecule `COc1c(Cl)cccc1Nc1c(-c2ccncc2OC[C@@H]2CCCO2)[nH]c2c1C(=O)NCC2CCC(F)(F)F` (single isomer, unassigned) [Example 99], in assay [1], the “mutEGFR” value is 0.72 nM. The concentration for half-maximal inhibition (IC50) against Bub1 is more than 20000 nM. In addition, the GI50 came out at 846 nM at Ba/F3-EGFR-WT cells and 45.9 nM in assay [2].
On to `COc1c(Cl)cccc1Nc1c(-c2ccncc2OCC2CCCCO2)[nH]c2c1C(=O)NCC2C` (single isomer, unassigned) [Example 45, 3-(3-chloro-2-methoxy-anilino)-7-methyl-2-[3-(tetrahydropyran-2-ylmethoxy)-4-pyridyl]-1,5,6,7-tetrahydropyrrolo[3,2-c]pyridin-4-one], for which, in assay [1], the “mutEGFR” value was 0.391 nM. Moreover, at Bub1, the IC50 was more than 20000 nM. Further, the GI50 at Ba/F3-EGFR-WT cells worked out at 840 nM; in assay [2], 47.3 nM.
On to `COc1c(Cl)cccc1Nc1c(-c2ccncc2OC[C@@H]2COCCN2C)[nH]c2c1C(=O)NCC2CCO` (single isomer, unassigned) [Example 115], for which the “mutEGFR” value in assay [1] was determined as 0.456 nM. Besides, on Bub1, the IC50 was determined as 13200 nM. Moreover, the GI50 on Ba/F3-EGFR-WT cells worked out at 5420 nM.
The molecule `COc1c(Cl)cccc1Nc1c(-c2ccncc2OC[C@@H]2CCCO2)[nH]c2c1C(=O)NCC2C` (single isomer, unassigned) [Example 32] registered a 50% inhibitory concentration (IC50) against Bub1 of 3640 nM. Besides, the GI50 at Ba/F3-EGFR-WT cells stood at 737 nM; in assay [2], 52.7 nM.
